Read-outs that look alike come from different tables or passages of the source. Peptide text beside a SMILES is read from it. * marks the point of attachment. βNA = c1ccc2cc(N*)ccc2c1
Assays:
Type in all cases: cell-based, Pseudomonas aeruginosa
[1] = test system: P. aeruginosa; assay: MIC potentiation of antimicrobial agents by EPIs; conditions: for MIC of antibiotic + TXA01182 / Fold difference of antibiotic MIC + TXA01182: TXA01182 at […]; for MIC of antibiotic + TXA09155 / Fold difference of antibiotic MIC + TXA09155: TXA09155 at […]; for MIC of antibiotic + TXA11114 / Fold difference of antibiotic MIC + TXA11114: TXA11114 at […];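 on Fold difference of antibiotic MIC + TXA01182: TXA01182 tested at 6.25 µg/mL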;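 on Fold difference of antibiotic MIC + TXA09155: TXA09155 tested at 6.25 µg/mL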; on Fold difference of antibiotic MIC + TXA11114: TXA11114 at 6.25 µg/mL;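 on MIC of antibiotic + TXA01182: TXA01182 tested at 6.25 µg/mL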;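 on MIC of antibiotic + TXA09155: TXA09155 tested at 6.25 µg/mL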; on MIC of antibiotic + TXA11114: TXA11114 at 6.25 µg/mL
Method: In contrast, the activities of gentamicin and imipenem were unchanged in the presence of TXA11114 under the conditions tested. Although gentamicin can be transported by the MexXY efflux system, the absence of potentiation in this assay is not sufficient to draw conclusions regarding MexXY inhibition or overall efflux specificity.
(§1) MIC assays for potentiation of antimicrobial activity against P. aeruginosa were performed as described previously.

[2] = test system: P. aeruginosa ATCC 27853; assay: MIC and levofloxacin potentiation (broth microdilution); conditions: for LVX MIC (+EPI): levofloxacin MIC with EPI at […]
Method: Once synthesized, the three fluorinated EPI analogs (TXA11114, TXA11164 and TXA12027) were first assayed for their antibacterial activities against P. aeruginosa ATCC 27853. They had MICs of 100, >200 and 100 µg/mL, respectively (Table 1). […] Particularly, the inactivity of TXA11164 was surprising as the pKa values of both the amines are similar to that in TXA11114.
as §1

[3] = test system: multidrug-resistant P. aeruginosa clinical isolates from the CDC-FDA; assay: Levofloxacin MIC potentiation, CDC-FDA isolates; conditions: for Levofloxacin MIC fold difference, +EPI / Levofloxacin MIC, +EPI: EPI […] (TXA11114, TXA09155) or 50 μg/mL (MC-04,124, PAβN); for Share of CDC isolates with levofloxacin MIC reduced ≥8-fold (potentiated): TXA11114 […], PAβN and MC-04,124 50 µg/mL
Method: In a comparative study, the levofloxacin-potentiating activity of TXA11114 was evaluated alongside the well-characterized EPIs PAβN and MC-04,124 using P. aeruginosa clinical isolates obtained from the CDC and FDA Antimicrobial Resistance Isolate Bank and the Walter Reed Army Institute of Research (WRAIR). […] While PAβN has been widely studied in laboratory strains, its activity against the CDC/FDA P. aeruginosa panel has been reported only sparingly, limiting direct cross-study comparisons.
as §1

[4] = test system: P. aeruginosa ATCC 27853 ompH mutants EPIR32, EPIR36, EPIR38; assay: microbe, parasite or virus in culture
Method: as §1

[5] = Pseudomonas aeruginosa, ATCC27853, ATCC 27853 parent strain (Table S1), read-out: MIC
[6] = Pseudomonas aeruginosa, ATCC27853, EPI alone, ATCC 27853, read-out: EPI MIC

C[C@H]1c2cccc(O)c2C(=O)C2=C(O)[C@]3(O)C(=O)C(C(N)=O)=C(O)[C@@H](N(C)C)[C@@H]3[C@@H](O)[C@@H]21 [Doxycycline, doxycycline]
MIC of antibiotic + TXA01182 [1]: 2 µg/mL | MIC of antibiotic + TXA09155 [1]: 1 µg/mL | MIC of antibiotic + TXA11114 [1]: 4 µg/mL | MIC [2, 5]: 32 µg/mL

Cotrimoxazole
MIC of antibiotic, No EPI [1]: 256 µg/mL | Fold difference of antibiotic MIC + TXA01182 [1]: 16, (>16) fold | MIC of antibiotic + TXA01182 [1]: 16, (>16) μg/mL | Fold difference of antibiotic MIC + TXA09155 [1]: 32 fold | MIC of antibiotic + TXA09155 [1]: 8 µg/mL | Fold difference of antibiotic MIC + TXA11114 [1]: 8 fold | MIC of antibiotic + TXA11114 [1]: 32 µg/mL

NCC1CNC(C(=O)NC(CCc2ccccc2)C(=O)Nc2ccc3ncccc3c2)C1 (stereo not drawn) [MC-04,124]
Levofloxacin MIC fold difference, +EPI ([3]; AR-0229): 1 fold | Levofloxacin MIC, +EPI ([3]; AR-0229): 64 µg/mL | Levofloxacin MIC fold difference, +EPI ([3]; AR-0232): 1 fold | Levofloxacin MIC, +EPI ([3]; AR-0232): 8 µg/mL | Levofloxacin MIC fold difference, +EPI ([3]; AR-0233): 1 fold | Levofloxacin MIC, +EPI ([3]; AR-0233): 4 µg/mL | Levofloxacin MIC fold difference, +EPI ([3]; AR-0234): 1 fold | Levofloxacin MIC, +EPI ([3]; AR-0234): 8 µg/mL | Levofloxacin MIC fold difference, +EPI ([3]; AR-0239): 1 fold | Levofloxacin MIC, +EPI ([3]; AR-0239): 64 µg/mL | Levofloxacin MIC fold difference, +EPI ([3]; AR-0242): 2 fold | Levofloxacin MIC, +EPI ([3]; AR-0242): 4 µg/mL | Levofloxacin MIC fold difference, +EPI ([3]; AR-0244): 1 fold | Levofloxacin MIC fold difference, +EPI ([3]; AR-0246): 1 fold | Levofloxacin MIC, +EPI ([3]; AR-0246): 64 µg/mL | Levofloxacin MIC fold difference, +EPI ([3]; AR-0248): 1 fold | Levofloxacin MIC, +EPI ([3]; AR-0248): 16 µg/mL | Levofloxacin MIC fold difference, +EPI ([3]; AR-0249): 1 fold | Levofloxacin MIC, +EPI ([3]; AR-0249): 64 µg/mL | Levofloxacin MIC fold difference, +EPI ([3]; AR-0252): 1 fold | Levofloxacin MIC, +EPI ([3]; AR-0252): 32 µg/mL | Levofloxacin MIC fold difference, +EPI ([3]; AR-0253): 1 fold | Levofloxacin MIC, +EPI ([3]; AR-0253): 2 µg/mL | Levofloxacin MIC fold difference, +EPI ([3]; AR-0264): 1 fold | Levofloxacin MIC, +EPI ([3]; AR-0264): 64 µg/mL | Share of CDC isolates with levofloxacin MIC reduced ≥8-fold (potentiated) [3]: minimal MIC shifts

C[C@@H](O)[C@H]1C(=O)N2C(C(=O)O)=C(S[C@@H]3CN[C@H](C(=O)N(C)C)C3)[C@H](C)[C@H]12 [MEM, meropenem]
MIC [2, 5]: 1 µg/mL | MIC ([4]; Pseudomonas aeruginosa, ATCC27853, EPIR32): 0.125 µg/mL | MIC ([4]; Pseudomonas aeruginosa, ATCC27853, EPIR36): 0.125 µg/mL | MIC ([4]; Pseudomonas aeruginosa, ATCC27853, EPIR38): 0.5 µg/mL

C[C@H]1[C@H](NC(=O)/C(=N\OC(C)(C)C(=O)O)c2csc(N)n2)C(=O)N1S(=O)(=O)O [Aztreonam]
Fold difference of antibiotic MIC + TXA01182 [1]: 4 fold | MIC of antibiotic + TXA01182 [1]: 2 µg/mL | Fold difference of antibiotic MIC + TXA09155 [1]: 4 fold | MIC of antibiotic + TXA09155 [1]: 2 µg/mL | Fold difference of antibiotic MIC + TXA11114 [1]: 2 fold

NC(N)=NCCC[C@H](NC(=O)[C@@H](N)Cc1ccccc1)C(=O)Nc1ccc2ccccc2c1 [PAβN, phenylalanine-arginine β-naphthylamide] (H-Phe-Arg-βNA)
Levofloxacin MIC fold difference, +EPI ([3]; AR-0229): 1 fold | Levofloxacin MIC, +EPI ([3]; AR-0229): 64 µg/mL | Levofloxacin MIC fold difference, +EPI ([3]; AR-0232): 16 fold | Levofloxacin MIC, +EPI ([3]; AR-0232): 0.5 µg/mL | Levofloxacin MIC fold difference, +EPI ([3]; AR-0233): 1 fold | Levofloxacin MIC, +EPI ([3]; AR-0233): 4 µg/mL | Levofloxacin MIC fold difference, +EPI ([3]; AR-0234): 16 fold | Levofloxacin MIC, +EPI ([3]; AR-0234): 0.5 µg/mL | Levofloxacin MIC fold difference, +EPI ([3]; AR-0239): 8, (8) fold | Levofloxacin MIC, +EPI ([3]; AR-0239): 8, (8) μg/mL | Levofloxacin MIC, +EPI ([3]; AR-0242): 0.5 µg/mL | Levofloxacin MIC fold difference, +EPI ([3]; AR-0244): 1 fold | Levofloxacin MIC fold difference, +EPI ([3]; AR-0246): 1 fold | Levofloxacin MIC, +EPI ([3]; AR-0246): 64 µg/mL | Levofloxacin MIC fold difference, +EPI ([3]; AR-0248): 1 fold | Levofloxacin MIC, +EPI ([3]; AR-0248): 16 µg/mL | Levofloxacin MIC fold difference, +EPI ([3]; AR-0249): 8, (8) fold | Levofloxacin MIC, +EPI ([3]; AR-0249): 8, (8) μg/mL | Levofloxacin MIC fold difference, +EPI ([3]; AR-0252): 32 fold | Levofloxacin MIC, +EPI ([3]; AR-0252): 1 µg/mL | Levofloxacin MIC fold difference, +EPI ([3]; AR-0253): 64 fold | Levofloxacin MIC, +EPI ([3]; AR-0253): 0.031 µg/mL | Levofloxacin MIC fold difference, +EPI ([3]; AR-0264): 1 fold | Levofloxacin MIC, +EPI ([3]; AR-0264): 64 µg/mL | Share of CDC isolates with levofloxacin MIC reduced ≥8-fold (potentiated) [3]: ~ 54%

CNC(C)C1CCC(N)C(OC2C(N)CC(N)C(OC3OCC(C)(O)C(NC)C3O)C2O)O1 (stereo not drawn) [Gentamicin]
Fold difference of antibiotic MIC + TXA01182 [1]: 1 fold | MIC of antibiotic + TXA01182 [1]: 2 µg/mL | Fold difference of antibiotic MIC + TXA09155 [1]: 1 fold | MIC of antibiotic + TXA09155 [1]: 2 µg/mL | Fold difference of antibiotic MIC + TXA11114 [1]: 1 fold | MIC of antibiotic + TXA11114 [1]: 2 µg/mL | Fold difference of antibiotic MIC + TXA11114 ([1]; listed as gentamicin): unchanged

CO/N=C(\C(=O)N[C@@H]1C(=O)N2C(C(=O)[O-])=C(C[n+]3cccc4c3CCC4)CS[C@H]12)c1csc(N)n1 [Cefpirome]
Fold difference of antibiotic MIC + TXA01182 [1]: 2 fold | Fold difference of antibiotic MIC + TXA09155 [1]: 8 fold | MIC of antibiotic + TXA09155 [1]: 1 µg/mL | Fold difference of antibiotic MIC + TXA11114 [1]: 4 fold | MIC of antibiotic + TXA11114 [1]: 2 µg/mL

NCCC(F)[C@@H](N)CNC(=O)c1cc2ccc(-c3ccc(F)cc3)cc2[nH]1 (stereo partly drawn) [TXA11164, N-((2S)-2,5-diamino-3-fluoropentyl)-6-(4-fluorophenyl)-1H-indole-2-carboxamide]
EPI MIC ([2]; EPI alone, ATCC 27853): >200 µg/mL | Fold MIC reduction [LVX/EPI-LVX] ([2]; EPI at […], ATCC 27853, listed as TXA11167): lacked potentiation activity | MIC [2, 6]: > 200 µg/mL | LVX MIC (+EPI) ([2]; ATCC 27853): 1 µg/mL

polymyxin B [PMB]
MIC ([2]; ATCC 27853 parent strain (Table S1)): 2 µg/mL | MIC ([4]; EPIR32): 4 µg/mL | MIC ([4]; EPIR36): 4 µg/mL | MIC ([4]; EPIR38): 4 µg/mL

NCC(F)(F)C[C@@H](N)CNC(=O)c1cc2ccc(-c3ccc(F)cc3)cc2[nH]1 [TXA12027, (R)-N-(2,5-diamino-4,4-difluoropentyl)-6-(4-fluorophenyl)-1H-indole-2-carboxamide]
MIC [2, 6]: 100 µg/mL | LVX MIC (+EPI) ([2]; ATCC 27853): 1 µg/mL

Nc1nc(/C(=N/O)C(=O)N[C@@H]2C(=O)N3C(C(=O)O)=C(/C=C4\CCN([C@@H]5CCNC5)C4=O)CS[C@H]23)ns1 [Ceftobiprole]
Fold difference of antibiotic MIC + TXA01182 [1]: 1 fold | MIC of antibiotic + TXA01182 [1]: 8 µg/mL | Fold difference of antibiotic MIC + TXA09155 [1]: 8 fold | MIC of antibiotic + TXA09155 [1]: 1 µg/mL | Fold difference of antibiotic MIC + TXA11114 [1]: 4 fold | MIC of antibiotic + TXA11114 [1]: 2 µg/mL

Source: article PMC13114161 (Antibiotics, 2026)
